Reference: paper PMC8704606, “The Artemiside-Artemisox-Artemisone-M1 Tetrad: Efficacies against Blood Stage P. falciparum Parasites, DMPK Properties, and the Case for Artemiside” (Pharmaceutics, 2021)
Read-outs that look alike come from different tables or passages of the source.

Assays:
[1] = set-up: method as in PMID 34097488; conditions: cited from earlier work
[2] = system: fetal rat brain stem cells; conditions: ref S4 (24), cited from earlier work; for Viability NOEC: neuron-specific enolase activity, 7 days exposure
7G8 (CQ resistant) = system: 7G8 (CQ resistant); set-up: method as in ref S2; conditions: [3H]-hypoxanthine assay; ref S2; read-out: Antimalarial activities IC50 7G8; cited from earlier work
[3] = set-up: method as in PMID 18559649; conditions: clinical Phase I trial, subject plasma samples; cited from earlier work
[4] = system: TM91-C235 (CQ and MFQ resistant); set-up: method as in ref S2; conditions: [3H]-hypoxanthine assay; ref S2; read-out: Antimalarial activities IC50 TM91-C235; cited from earlier work
[5] = system: asexual blood stages of Pf K1 (drug resistant); assay: SYBR Green I proliferation assay, asexual blood stages, Pf K1; assay type: cell-based, Plasmodium falciparum
Method: (§1) Dose response curves are in Figures S1a–c and S2a–c in the Supplementary Material 1. Table 1 also includes the historical values for artemiside and artemisone obtained using the same assay.
(§2) All other assay conditions are as previously described. Compound working solutions were prepared from a 10 mM stock solution in 100% (vol/vol) dimethyl sulfoxide (DMSO, Sigma-Aldrich) in supplemented RPMI 1640 medium containing AlbuMAX II with a final DMSO concentration of 0.1% (vol/vol), previously determined to be nontoxic to blood stage asexual parasites and gametocytes. The dose-responses of the amino-artemisinins were assayed using a 2-fold serial drug dilution on in vitro 95% ring-stage parasites at 37 °C under 90% N2, 5% CO2, and 5% O2 atmospheric conditions, detecting SYBR green I fluorescence as the proliferative marker following a 96 h drug treatment (1% parasitemia and 1% hematocrit) using a GloMaxR-Multi+ Detection System (Promega). No drug washout steps were performed during drug incubation periods prior to the assays. Activity against the Pf drug-sensitive NF54 strain and the drug-resistant K1 (resistant to CQ, quinine, pyrimethamine, and cycloguanil) and W2 (resistant to CQ, quinine, pyrimethamine, and cycloguanil) strains was evaluated. Data analysis was performed using GraphPad Prism (version 6), intra-assay variability was monitored with Z-factors, and acceptable interassay reproducibility was determined from the percent coefficient of variation (CV).

[6] = system: asexual blood stages of Pf NF54 (drug sensitive); assay: SYBR Green I proliferation assay, asexual blood stages, Pf NF54; assay type: cell-based, Plasmodium falciparum
Method: as §1, §2

[7] = system: asexual blood stages of Pf W2 (drug resistant); assay: SYBR Green I proliferation assay, asexual blood stages, Pf W2; assay type: cell-based, Plasmodium falciparum
Method: as §1, §2

[8] = ATP levels 1 day after initial administration

Structure (SMILES): C[C@H]1[C@H](N2CCSCC2)O[C@@H]2O[C@@]3(C)CC[C@H]4[C@H](C)CC[C@@H]1[C@@]24OO3 [Artemiside 5, Artemiside]
- F% (oral bioavailability) [1]: 1%
- ATP IC50 [2, 8]: 8.5 µg/mL
- ATP NOEC [2, 8]: 1.0 µg/mL
- ATP NOEC ([2]; ATP levels 1 day after initial administration, listed as artemiside): 1 µg/mL
- Viability NOEC [2]: 1.0 µg/mL
- Viability NOEC ([2]; listed as artemiside): 1 µg/mL

Structure (SMILES): C[C@H]1[C@H](N2CCS(=O)(=O)CC2)O[C@@H]2O[C@@]3(C)CC[C@H]4[C@H](C)CC[C@@H]1[C@@]24OO3 [Artemisone 7, Artemisone]
- IC50 (7G8 (CQ resistant)): 0.8 ± 0.1 nM
- fold higher ex vivo antimalarial activity at Tmax than corresponds to plasma concentration by LC-MS/MS [3]: 2.3 fold
- IC50 [4]: 1.1 ± 0.5 nM

Structure (SMILES): C[C@H]1[C@H](N2CC[S+]([O-])CC2)O[C@@H]2O[C@@]3(C)CC[C@H]4[C@H](C)CC[C@@H]1[C@@]24OO3 [Artemisox 6, Artemisox]
- RI (resistance index) = IC50 K1/IC50 NF54 [5]: 0.8
- IC50 ([5]; Plasmodium falciparum, asexual blood stage Pf K1, multidrug resistant, SYBR Green I, 96 h, ± SEM): 1.5 ± 0.5 nM
- RI ratios ([5]; multidrug resistant K1 and W2 vs NF54): < 1
- IC50 ([6]; Plasmodium falciparum, NF54, 96 h, asexual blood stage Pf NF54, CQ sensitive, SYBR Green I, 96 h, ± SEM, read-out: IC50 NF54): 1.95 ± 0.25 nM
- IC50 ([6]; Plasmodium falciparum, NF54, summary over NF54, K1 and W2 strains, read-out: IC50 against asexual Pf blood stage parasites): ~2 nM
- IC50 ([6]; summary over NF54, K1 and W2 strains, read-out: IC50 against asexual Pf blood stage parasites): 1.5 to 2.6 nM
- RI = IC50 W2/IC50 NF54 [7]: 0.7
- IC50 ([7]; Plasmodium falciparum, asexual blood stage Pf W2, multidrug resistant, SYBR Green I, 96 h, ± SEM): 1.5 ± 0.4 nM
